Test results: ChEMBL document CHEMBL4808171, “Structure-Activity Relationship Study and Biological Evaluation of 2-(Disubstituted phenyl)-indole-5-propanoic Acid Derivatives as GPR40 Full Agonists” (J Med Chem, 2021)
Activity calls are given as the source filed them. No cut-off for these calls is given here.

How the values were obtained:
[1] = target: Free fatty acid receptor 1 (Homo sapiens, UniProt O14842); experiment: Agonist activity at GPR40 (unknown origin) expressed in CHO cells co-expressing luc2P/SRE assessed as firefly luciferase activity at 10 uM incubated for 24 hrs hrs by Bright-Glo based serum response element (SRE) luciferase reporter assay relative to TAK875; format: functional, cell-based
Chain of Free fatty acid receptor 1 (O14842 whole entry): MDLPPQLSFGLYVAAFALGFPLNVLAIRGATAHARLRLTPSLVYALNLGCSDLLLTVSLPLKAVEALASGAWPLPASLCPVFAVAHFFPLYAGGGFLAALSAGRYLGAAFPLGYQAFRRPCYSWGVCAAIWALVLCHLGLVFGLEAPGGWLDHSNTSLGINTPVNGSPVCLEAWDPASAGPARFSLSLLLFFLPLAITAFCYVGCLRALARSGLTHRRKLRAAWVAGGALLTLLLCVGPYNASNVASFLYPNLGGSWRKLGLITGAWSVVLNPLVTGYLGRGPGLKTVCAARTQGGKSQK

[2] = target: T1, Peroxisome proliferator-activated receptor gamma (Homo sapiens, UniProt P37231); experiment: Agonist activity at human PPARgamma expressed in CHO cells assessed as increase in receptor transcriptional activity incubated for 24 hrs by dual luciferase reporter gene assay; format: cell-based
T1 sequence (P37231 whole entry): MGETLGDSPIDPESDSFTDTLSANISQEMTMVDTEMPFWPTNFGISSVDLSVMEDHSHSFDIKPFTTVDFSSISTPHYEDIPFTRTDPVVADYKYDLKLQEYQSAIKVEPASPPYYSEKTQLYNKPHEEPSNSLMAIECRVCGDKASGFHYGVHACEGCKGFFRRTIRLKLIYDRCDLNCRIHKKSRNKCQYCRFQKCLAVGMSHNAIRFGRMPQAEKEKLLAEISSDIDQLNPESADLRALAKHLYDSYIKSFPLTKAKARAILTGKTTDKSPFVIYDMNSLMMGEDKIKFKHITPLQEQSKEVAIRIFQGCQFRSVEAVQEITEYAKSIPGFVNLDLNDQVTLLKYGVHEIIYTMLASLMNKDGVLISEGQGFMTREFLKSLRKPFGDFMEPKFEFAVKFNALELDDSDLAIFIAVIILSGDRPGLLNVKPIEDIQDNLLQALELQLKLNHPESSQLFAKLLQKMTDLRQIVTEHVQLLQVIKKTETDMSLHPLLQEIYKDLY

[3] = target: T2, Peroxisome proliferator-activated receptor gamma (Homo sapiens) (UniProt P37231); experiment: Agonist activity at human PPARgamma expressed in CHO cells assessed as increase in receptor transcriptional activity at 1 uM incubated for 24 hrs by dual luciferase reporter gene assay relative to rosiglitazone; format: cell-based
T2 sequence (whole entry): T1 sequence (P37231 whole entry)

STC1 = experiment: Induction of GLP-1 secretion in […] STC1 cells at 100 uM after 1 hrs by ELISA; format: functional, cell-based

| Emax ([1]; filed as agonist) [%] | Emax [3] [%] | Emax [1] [%] | Compound | other results |
| --- | --- | --- | --- | --- |
| 109 | – | – | Cc1cc(Cl)ccc1-c1cc2cc(CCC(=O)O)ccc2[nH]1 | EC50 ([2]; read-out: EC50): 27.8 µM; Emax ([3]; filed as agonist): 104% |
| 109 | – | – | Cc1c(Cl)cccc1-c1cc2cc(CCC(=O)O)ccc2[nH]1 | EC50 ([2]; cho): Not Active |
| 78.3 | 11.5 | – | O=C(O)CCc1ccc2[nH]c(-c3c(Cl)cccc3Cl)cc2c1 | – |
| 95.3 | 30.6 | – | Cc1cc(Br)ccc1-c1cc2cc(CCC(=O)O)ccc2[nH]1 | – |
| 48 | 5.39 | – | O=C(O)CCc1ccc2[nH]c(-c3ccc(Cl)cc3Cl)cc2c1 | – |
| – | 6.32 | 16.9 | Cc1cc(F)ccc1-c1cc2cc(CCC(=O)O)ccc2n1C | – |
| – | – | – | CCCCC/C=C\C/C=C\CCCCCCCC(=O)O | Activity (STC1): Active |
| – | 0.01 | 20.3 | Cc1ccc(C)c(-c2cc3cc(CCC(=O)O)ccc3n2C)c1 | – |
| – | 18.2 | 6.81 | O=C(O)CCc1ccc2[nH]c(-c3cccc(Cl)c3F)cc2c1 | – |
| – | 2.69 | 22.8 | O=C(O)CCc1ccc2[nH]c(-c3cc(Cl)ccc3Cl)cc2c1 | – |
| 81.2 | 12.8 | – | O=C(O)CCc1ccc2[nH]c(-c3cccc(Cl)c3Cl)cc2c1 | – |
| – | 18.3 | 35 | Cc1ccc(Cl)cc1-c1cc2cc(CCC(=O)O)ccc2[nH]1 | – |
| – | 0.19 | 24.7 | O=C(O)CCc1ccc2[nH]c(-c3ccncc3Cl)cc2c1 | – |
| – | 15.9 | 7.67 | O=C(O)CCc1ccc2[nH]c(-c3ccc(Cl)cc3C(F)(F)F)cc2c1 | – |
| 69.5 | 0.52 | – | Cc1cccc(C)c1-c1cc2cc(CCC(=O)O)ccc2[nH]1 | – |
| – | 3.64 | 2.18 | O=C(O)CCc1ccc2[nH]c(-c3ccc(Cl)cc3F)cc2c1 | – |
| 61.8 | 2.51 | – | Cc1ccc(-c2cc3cc(CCC(=O)O)ccc3[nH]2)c(C)c1 | – |
